Results from the supplement of paper PMC11061612.

Assays:
[1] = test system: HCC-15 (Squamous Cell Lung Carcinoma); assay: combination Emax (second highest fraction inhibited in the dose matrix, 72 h); higher = more inhibition; extreme values may be limits of the assay
Summary of the method: (§1)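 After 24 hours at 37°C and 5% CO2 in 1536-well plates, cells in DMEM/F12 or RPMI plus 10% FBS received two-drug dose matrices for 72 hours. Viability came from CellTiter-Glo 2.0 luminescence and was scaled as inhibition, anchored at 0 by vehicle wells and at 1 by blank wells. Combination Emax is taken as the second-highest inhibition in the matrix, and Bliss excess as the observed combination effect less EA + EB − EA·EB, with EA and EB the single-agent effects.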

[2] = test system: TE-4 (Esophageal Squamous Cell Carcinoma); assay: as above
Summary of the method: as §1

[3] = test system: OC-314 (Ovarian Carcinoma); assay: as above
Summary of the method: as §1

[4] = test system: Hs-633T (Other Solid Carcinomas); assay: as above
Summary of the method: as §1

COLO-829 (Melanoma) [5] = assay: as above
Summary of the method: as §1

[6] = test system: KARPAS-231 (B-Cell Non-Hodgkin's Lymphoma); assay: as above
Summary of the method: as §1

NCI-H2461 (Mesothelioma) = assay: as above
Summary of the method: as §1

[7] = test system: CAL-51 (Breast Carcinoma); assay: as above
Summary of the method: as §1

[8] = test system: SK-OV-3 (Ovarian Carcinoma); assay: as above
Summary of the method: as §1

[9] = test system: LoVo (Colorectal Carcinoma); assay: as above
Summary of the method: as §1

[10] = test system: RT-112 (Bladder Carcinoma); assay: as above
Summary of the method: as §1

[11] = test system: HDLM-2 (Hodgkin's Lymphoma); assay: as above
Summary of the method: as §1

[12] = test system: SUP-T1 (T-Lymphoblastic Leukemia); assay: as above
Summary of the method: as §1

[13] = test system: SU-DHL-6 (B-Cell Non-Hodgkin's Lymphoma); assay: as above
Summary of the method: as §1

SH-4 (Melanoma) [14] = assay: as above
Summary of the method: as §1

[15] = test system: NCI-H69 (Small Cell Lung Carcinoma); assay: as above
Summary of the method: as §1

[16] = test system: RPMI-6666 (Non-Cancerous); assay: Bliss excess, mean over the matrix (fraction); higher = more synergy
Summary of the method: as §1

[17] = test system: CTB-1 (B-Cell Non-Hodgkin's Lymphoma); assay: as above
Summary of the method: as §1

COLO-829 (Melanoma) [18] = assay: as above
Summary of the method: as §1

SH-4 (Melanoma) [19] = assay: as above
Summary of the method: as §1
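For Bliss excess, mean over the matrix in this document: after 72 h of two-drug dosing.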

In the case of CC1(C)CCC(CN2CCN(c3ccc(C(=O)NS(=O)(=O)c4ccc(NCC5CCOCC5)c([N+](=O)[O-])c4)c(Oc4cnc5[nH]ccc5c4)c3)CC2)=C(c2ccc(Cl)cc2)C1 [Venetoclax] + Cc1cc2ncnn2cc1Nc1ncc2c(n1)n(C1CCOCC1)c(=O)n2C [AZD7648] (first compound max 1 µM, 7x7, partner max 10 µM), the “combination Emax” value [1] is reported as 0.253, the “combination Emax” value [2] is reported as 0.228 and the “combination Emax” value [3] is reported as 0.251. For the same compound, the “combination Emax” value [4] was 0.188, the “combination Emax” value (COLO-829 (Melanoma) [5]) was 0.143 and the “combination Emax” value [6] was 0.808. The “combination Emax” value (NCI-H2461 (Mesothelioma)) was 0.528, the “combination Emax” value [7] was 0.289 and the “combination Emax” value [8] was 0.353. For the same compound, the “combination Emax” value [9] was 0.443, the “combination Emax” value [10] was 0.257 and the “combination Emax” value [11] was 0.431. For the same compound, the “combination Emax” value [12] was 0.602, the “combination Emax” value [13] was 0.853 and the “combination Emax” value (SH-4 (Melanoma) [14]) was 0.279. The “combination Emax” value [15] was 0.657, the Bliss excess [16] was -0.0477 and the Bliss excess [17] was -0.0638. The Bliss excess (COLO-829 (Melanoma) [18]) was -0.0367 and the Bliss excess (SH-4 (Melanoma) [19]) was -0.0039.

For Cc1cc2ncnn2cc1Nc1ncc2c(n1)n(C1CCOCC1)c(=O)n2C [AZD7648] + C[C@@H]1COCCN1C2=NC(=NC(=C2)C3(CC3)[S@](=N)(=O)C)C4=C5C=CNC5=NC=C4 [AZD6738] (first compound max 10 µM, 7x7, partner max 10 µM), the “combination Emax” value [1] was 0.181, the “combination Emax” value [2] was 0.531 and the “combination Emax” value [3] was 0.905. For the same compound, the “combination Emax” value [4] was 0.855, the “combination Emax” value (COLO-829 (Melanoma) [5]) was 0.286 and the “combination Emax” value [6] was 0.837. The “combination Emax” value (NCI-H2461 (Mesothelioma)) was 0.71, the “combination Emax” value [7] was 0.923 and the “combination Emax” value [8] was 0.638. For the same compound, the “combination Emax” value [9] was 0.813, the “combination Emax” value [10] was 0.93 and the “combination Emax” value [11] was 0.373. The “combination Emax” value [12] was 0.744, the “combination Emax” value [13] was 0.613 and the “combination Emax” value (SH-4 (Melanoma) [14]) was 0.335. For the same compound, the “combination Emax” value [15] was 0.469, the Bliss excess [16] was -0.0048 and the Bliss excess [17] was 0.0098. The Bliss excess (COLO-829 (Melanoma) [18]) was -0.0088 and the Bliss excess (SH-4 (Melanoma) [19]) was -0.0043.

With CN(C)CCCOc1ccc(-c2ccc3ncc4c(c3c2)n(C2CCOCC2)c(=O)n4C)cn1 [AZD0156] + C=CCn1c(=O)c2cnc(Nc3ccc(N4CCN(C)CC4)cc3)nc2n1-c1cccc(C(C)(C)O)n1 [AZD1775] (first compound max 1 µM, partner max 1 µM) the “combination Emax” value [1] was 0.299, the “combination Emax” value [2] was 0.324 and the “combination Emax” value [3] was 0.515. For the same compound, the “combination Emax” value [4] was 0.769, the “combination Emax” value (COLO-829 (Melanoma) [5]) was 0.099 and the “combination Emax” value [6] was 0.988. The “combination Emax” value (NCI-H2461 (Mesothelioma)) was 0.674, the “combination Emax” value [7] was 0.728 and the “combination Emax” value [8] was 0.54. For the same compound, the “combination Emax” value [9] was 0.785, the “combination Emax” value [10] was 0.514 and the “combination Emax” value [11] was 0.721. The “combination Emax” value [12] was 0.872, the “combination Emax” value [13] was 0.699 and the “combination Emax” value (SH-4 (Melanoma) [14]) was 0.564. The “combination Emax” value [15] was 0.312, the Bliss excess [16] was -0.009 and the Bliss excess [17] was 0.0101. For the same compound, the Bliss excess (COLO-829 (Melanoma) [18]) was -0.0486 and the Bliss excess (SH-4 (Melanoma) [19]) was -0.0219.

For CN(CCO)CC[C@H](CSc1ccccc1)Nc1ccc(S(=O)(=O)NC(=O)c2ccc(N3CCC([C@@H](O)c4ccccc4-c4ccc(Cl)cc4)CC3)cc2)cc1S(=O)(=O)C(F)(F)F [AZD4320] + Cn1cnc2c(F)c(Nc3ccc(Br)cc3Cl)c(C(=O)NOCCO)cc21 [Selumetinib] (first compound max 1 µM, 7x7, partner max 3 µM), the “combination Emax” value [1] was 1, the “combination Emax” value [2] was 0.308 and the “combination Emax” value [3] was 0.351. The “combination Emax” value [4] was 0.5, the “combination Emax” value (COLO-829 (Melanoma) [5]) was 0.601 and the “combination Emax” value [6] was 0.977. For the same compound, the “combination Emax” value (NCI-H2461 (Mesothelioma)) was 0.328, the “combination Emax” value [7] was 0.487 and the “combination Emax” value [8] was 0.258. For the same compound, the “combination Emax” value [9] was 0.516, the “combination Emax” value [10] was 0.552 and the “combination Emax” value [11] was 0.847. The “combination Emax” value [12] was 0.872, the “combination Emax” value [13] was 0.974 and the “combination Emax” value (SH-4 (Melanoma) [14]) was 0.955. The “combination Emax” value [15] was 0.885, the Bliss excess [16] was -0.0047 and the Bliss excess [17] was -0.0849. For the same compound, the Bliss excess (COLO-829 (Melanoma) [18]) was -0.0351 and the Bliss excess (SH-4 (Melanoma) [19]) was 0.107.

In the case of Cc1cc2ncnn2cc1Nc1ncc2c(n1)n(C1CCOCC1)c(=O)n2C [AZD7648] + CCN(CCO)CCCOc1ccc2c(Nc3cc(CC(=O)Nc4cccc(F)c4)[nH]n3)ncnc2c1 [AZD2811] (first compound max 10 µM, 7x7, partner max 1 µM), the “combination Emax” value [1] is reported as 0.703, the “combination Emax” value [2] is reported as 0.137 and the “combination Emax” value [3] is reported as 0.477. For the same compound, the “combination Emax” value [4] was 0.431, the “combination Emax” value (COLO-829 (Melanoma) [5]) was 0.196 and the “combination Emax” value [6] was 0.517. The “combination Emax” value (NCI-H2461 (Mesothelioma)) was 0.468, the “combination Emax” value [7] was 0.446 and the “combination Emax” value [8] was 0.367. The “combination Emax” value [9] was 0.529, the “combination Emax” value [10] was 0.49 and the “combination Emax” value [11] was 0.345. For the same compound, the “combination Emax” value [12] was 0.641, the “combination Emax” value [13] was 0.51 and the “combination Emax” value (SH-4 (Melanoma) [14]) was 0.345. The “combination Emax” value [15] was 0.743, the Bliss excess [16] was 0.036 and the Bliss excess [17] was -0.0578. The Bliss excess (COLO-829 (Melanoma) [18]) was -0.0034 and the Bliss excess (SH-4 (Melanoma) [19]) was -0.0059.

CC1(C)CCC(CN2CCN(c3ccc(C(=O)NS(=O)(=O)c4ccc(NCC5CCOCC5)c([N+](=O)[O-])c4)c(Oc4cnc5[nH]ccc5c4)c3)CC2)=C(c2ccc(Cl)cc2)C1 [Venetoclax] + CCN(CCO)CCCOc1ccc2c(Nc3cc(CC(=O)Nc4cccc(F)c4)[nH]n3)ncnc2c1 [AZD2811] (first compound max 1 µM, 7x7, partner max 1 µM) was tested, and the “combination Emax” value [1] was 0.781, the “combination Emax” value [2] was 0.191 and the “combination Emax” value [3] was 0.419. For the same compound, the “combination Emax” value [4] was 0.217, the “combination Emax” value (COLO-829 (Melanoma) [5]) was 0.127 and the “combination Emax” value [6] was 1. For the same compound, the “combination Emax” value (NCI-H2461 (Mesothelioma)) was 0.422, the “combination Emax” value [7] was 0.349 and the “combination Emax” value [8] was 0.205. The “combination Emax” value [9] was 0.197, the “combination Emax” value [10] was 0.458 and the “combination Emax” value [11] was 0.486. For the same compound, the “combination Emax” value [12] was 0.614, the “combination Emax” value [13] was 0.877 and the “combination Emax” value (SH-4 (Melanoma) [14]) was 0.241. For the same compound, the “combination Emax” value [15] was 0.824, the Bliss excess [16] was 0.189 and the Bliss excess [17] was -0.118. For the same compound, the Bliss excess (COLO-829 (Melanoma) [18]) was -0.0359 and the Bliss excess (SH-4 (Melanoma) [19]) was -0.0115.

For Cc1c2c(nn1C)CSCc1cc(n(C)n1)CSc1cc(c3ccccc3c1)OCCCc1c(C(=O)O)n(C)c3c-2c(Cl)ccc13 [AZD5991] + C1CN(CCC1(C(=O)N[C@@H](CCO)C2=CC=C(C=C2)Cl)N)C3=NC=NC4=C3C=CN4 [Capivasertib] (first compound max 1 µM, 7x7, partner max 3 µM), the “combination Emax” value [1] was 0.227, the “combination Emax” value [2] was 0.81 and the “combination Emax” value [3] was 0.297. For the same compound, the “combination Emax” value [4] was 0.216, the “combination Emax” value (COLO-829 (Melanoma) [5]) was 0.222 and the “combination Emax” value [6] was 1. The “combination Emax” value (NCI-H2461 (Mesothelioma)) was 0.464, the “combination Emax” value [7] was 0.792 and the “combination Emax” value [8] was 0.36. For the same compound, the “combination Emax” value [9] was 0.625, the “combination Emax” value [10] was 0.858 and the “combination Emax” value [11] was 1. The “combination Emax” value [12] was 0.503, the “combination Emax” value [13] was 1 and the “combination Emax” value (SH-4 (Melanoma) [14]) was 0.332. The “combination Emax” value [15] was 0.405, the Bliss excess [16] was 0.0216 and the Bliss excess [17] was -0.0048. It also gave a Bliss excess (COLO-829 (Melanoma) [18]) of -0.0212 and a Bliss excess (SH-4 (Melanoma) [19]) of -0.0029.
